Data as given in patent US10265346B2, “Trehalose-containing mammalian cell suspension for prevention of pulmonary embolism formation” (OTSUKA PHARMACEUTICAL FACTORY, INC., priority 2012, dated 2019).

Experiment: Preventive effect against pulmonary embolism formation (no method given)
Details: stated as demonstrated by the present inventors, no data given

## dextran
  preventive effect against pulmonary embolism formation (in words): demonstrated to have a preventive effect against pulmonary embolism formation
